# Test results as given in patent US20020173452A1, “Cytostatic-glycoconjugates having specifically cleavable linking units” (priority 2000, published 2002).
# Where a SMILES comes first, the peptide text is derived from it. [ ]: non-standard residue; d: D form. The star is where a group is joined. ξ: configuration not given here. Camptothecin(20R,20-O) = CC[C@]1(O*)C(=O)OCc2c1cc1n(c2=O)Cc2cc3ccccc3nc2-1; X5 = C[C@H]1O[C@@H](Oc2ccc(NC(=S)*)cc2)[C@@H](O)[C@@H](OCC(N)=O)[C@H]1O; X9 = C[C@H]1O[C@@H](Oc2ccc(NC(=S)*)cc2)[C@@H](O)[C@@H](OCCO)[C@H]1O; X8 = C[C@H]1OC(Oc2ccc(NC(=S)*)cc2)[C@@H](O)[C@@H](OCC(=O)O)[C@H]1O; X4 = CO[C@H]1[C@H](O)[C@@H](Oc2ccc(NC(=S)*)cc2)O[C@@H](C)[C@H]1O; X6 = CO[C@@H]1[C@H](O)[C@H](Oc2ccc(NC(=S)*)cc2)O[C@H](C)[C@@H]1O; X1 = CO[C@H]1[C@@H](O)[C@@H](C)OC(Oc2ccc(NC(=S)*)cc2)[C@H]1O; X7 = OC[C@H]1OC(Oc2ccc(NC(=S)*)cc2)[C@@H](O)[C@@H](O)[C@H]1O; X2 = CC[C@@]1(O*)C(=O)OCc2c1cc1n(c2=O)Cc2cc3ccccc3nc2-1; Ile(3ξ) = CCC(C)[C@H](N)C(=O)O; ξV = CC(C)C(N)C(=O)O; ξP = O=C(O)C1CCCN1
# Columns and labels:
# Test in all cases: Growth inhibition test (MTT) for cytotoxic properties on tumour cell lines
# Assay type in all cases: cell-based
# [1] = test system: HT29 human large intestine cell line; settings: HT29 cells, growth checked after day 6, read-out: IC50 of the cytotoxic action on tumour cell lines, HT29
# Description: (§1) A: Growth Inhibition Test for the Determination of the Cytotoxic Properties on Various Tumour Cell Lines
# (§2) The human large intestine cell lines SW 480 and HT29 (ATCC No. CCL 228 and HTB38 and the mouse melanoma cell line B16F10 (CRL 6475) were grown to confluence in Roux dishes in RPMI 1640 medium with addition of 10% FCS. They were then trypsinized and taken up in RPMI plus 10% FCS to a cell count of 50,000 cells or, for B16F10, 20,000 cells per ml. 100 μl of cell suspension/well were added to a 96 microwell plate and incubated at 37° C. for 1 day in a CO2 incubator. A further 100 μl of RPMI medium and 1 μl of DMSO were then added with the test substances. The growth was checked after day 6. For this, 25 μl of MTT solution (3-(4,5-dimethylthiazol-2-yl)-2,5-diphenyltetrazolium bromide) was added to each well at a starting concentration of 5 mg/ml of H2O. The plate was incubated at 37° C. for 5 hours in a CO2 incubator. The medium was then aspirated and 100 μl of 1-propanol/well were added. After shaking with 100 μl of H2O for 30 min, the extinction was measured at 595 nm using a Multiplate Reader (BIO-RAD 3550-UV).
# (§3) The cytostatic action is indicated in Table 1 as an IC50 value, in each case for the individual cell lines.
# [2] = test system: SW 480 human large intestine cell line; settings: SW480 cells, growth checked after day 6, read-out: IC50 of the cytotoxic action on tumour cell lines, SW480
# Description: as §1, §2, §3
# [3] = test system: B16F10 mouse melanoma cell line; settings: B16F10 cells, growth checked after day 6, read-out: IC50 of the cytotoxic action on tumour cell lines, B16F10
# Description: as §1, §2, §3
SMILES,IC50 [1],IC50 [2],IC50 [3]
CC[C@@]1(OC(=O)[C@H](NC(=O)[C@@H](Cc2c[nH]cn2)NC(=O)CNC(=O)[C@H](CC(C)C)NC(=O)[C@H]2CCCN2C(=S)Nc2ccc(OC3O[C@H](C)[C@H](O)[C@H](OC)[C@@H]3O)cc2)C(C)C)C(=O)OCc2c1cc1n(c2=O)Cc2cc3ccccc3nc2-1 (stereo partly drawn) [Example 1],70 nM,150 nM,150 nM
CC[C@@]1(OC(=O)[C@H](NC(=O)[C@@H](CSC)NC(=O)[C@@H](CC(C)C)NC(=O)CNC(=O)[C@H](CC(C)C)NC(=O)[C@H]2CCCN2C(=S)Nc2ccc(OC3O[C@H](C)[C@H](O)[C@H](OC)[C@@H]3O)cc2)C(C)C)C(=O)OCc2c1cc1n(c2=O)Cc2cc3ccccc3nc2-1 (stereo partly drawn) [Example 8] (X1-[dP]LG[dL][dC](Me)[dV]-X2),40 nM,50 nM,150 nM
"CC[C@]1(OC(=O)[C@H](NC(=O)[C@@H](CCCCN)NC(=O)[C@@H](CC(C)C)NC(=O)CNC(=O)[C@H](CC(C)C)NC(=O)[C@H]2CCCN2C(=S)Nc2ccc(O[C@@H]3O[C@H](C)[C@H](O)[C@H](OC)[C@@H]3O)cc2)C(C)C)C(=O)OCc2c1cc1n(c2=O)Cc2cc3ccccc3nc2-1 [Example 10] (X6-[dP]LG[dL][dK][dV]-{Camptothecin(20R,20-O)})",70 nM,80 nM,150 nM
CC[C@@]1(OC(=O)[C@H](NC(=O)[C@@H](Cc2c[nH]cn2)NC(=O)[C@@H](CC(C)C)NC(=O)CNC(=O)[C@H](CC(C)C)NC(=O)[C@H]2CCCN2C(=S)Nc2ccc(OC3O[C@H](C)[C@H](O)[C@H](OC)[C@@H]3O)cc2)C(C)C)C(=O)OCc2c1cc1n(c2=O)Cc2cc3ccccc3nc2-1 (stereo partly drawn) [Example 11] (X1-[dP]LG[dL][dH][dV]-X2),80 nM,200 nM,300 nM
CC[C@@]1(OC(=O)[C@H](NC(=O)[C@@H](Cc2c[nH]cn2)NC(=O)[C@@H](CC(C)C)NC(=O)CNC(=O)[C@H](CC(C)C)NC(=O)[C@H]2CCCN2C(=S)Nc2ccc(OC3O[C@H](C)[C@H](O)[C@H](OC)[C@@H]3O)cc2)C(C)C)C(=O)OCc2c1cc1n(c2=O)Cc2cc3ccccc3nc2-1 (stereo partly drawn) [Example 13] (X1-[dP]LG[dL][dH][dV]-X2),70 nM,100 nM,200 nM
CC[C@@]1(OC(=O)[C@@H](NC(=O)[C@@H](C)NC(=O)[C@H](CC(C)C)NC(=O)CNC(=O)[C@H](CC(C)C)NC(=O)[C@@H]2CCCN2C(=S)Nc2ccc(O[C@H]3O[C@@H](C)[C@@H](O)[C@@H](OC)[C@@H]3O)cc2)C(C)C)C(=O)OCc2c1cc1n(c2=O)Cc2cc3ccccc3nc2-1 [Example 14] (X4-PLGL[dA]V-X2),900 nM,700 nM,2000 nM
CC[C@@]1(OC(=O)[C@@H](NC(=O)[C@@H](NC(=O)[C@H](CC(C)C)NC(=O)CNC(=O)[C@H](CC(C)C)NC(=O)[C@@H]2CCCN2C(=S)Nc2ccc(O[C@H]3O[C@@H](C)[C@@H](O)[C@@H](OC)[C@@H]3O)cc2)C(C)C)C(C)C)C(=O)OCc2c1cc1n(c2=O)Cc2cc3ccccc3nc2-1 [Example 15] (X4-PLGLVV-X2),100 nM,80 nM,400 nM
CC[C@@]1(OC(=O)[C@@H](NC(=O)[C@H](Cc2ccccc2)NC(=O)[C@H](CC(C)C)NC(=O)CNC(=O)[C@H](CC(C)C)NC(=O)[C@@H]2CCCN2C(=S)Nc2ccc(O[C@H]3O[C@@H](C)[C@@H](O)[C@@H](OC)[C@@H]3O)cc2)C(C)C)C(=O)OCc2c1cc1n(c2=O)Cc2cc3ccccc3nc2-1 [Example 16] (X4-PLGLFV-X2),80 nM,60 nM,250 nM
CC[C@@]1(OC(=O)[C@@H](NC(=O)[C@H](CO)NC(=O)[C@H](CC(C)C)NC(=O)CNC(=O)[C@H](CC(C)C)NC(=O)[C@@H]2CCCN2C(=S)Nc2ccc(O[C@H]3O[C@@H](C)[C@@H](O)[C@@H](OC)[C@@H]3O)cc2)C(C)C)C(=O)OCc2c1cc1n(c2=O)Cc2cc3ccccc3nc2-1 [Example 17] (X4-PLGLSV-X2),70 nM,40 nM,200 nM
CCC(C)[C@H](NC(=O)[C@H](CC(C)C)NC(=O)CNC(=O)[C@H](CC(C)C)NC(=O)[C@@H]1CCCN1C(=S)Nc1ccc(O[C@H]2O[C@@H](C)[C@@H](O)[C@@H](OC)[C@@H]2O)cc1)C(=O)N[C@H](C(=O)O[C@]1(CC)C(=O)OCc2c1cc1n(c2=O)Cc2cc3ccccc3nc2-1)C(C)C (stereo partly drawn) [Example 18] (X4-PLGL[Ile(3ξ)]V-X2),200 nM,100 nM,600 nM
CC[C@@]1(OC(=O)[C@@H](NC(=O)[C@H](CCC(=O)O)NC(=O)[C@H](CC(C)C)NC(=O)CNC(=O)[C@H](CC(C)C)NC(=O)[C@@H]2CCCN2C(=S)Nc2ccc(O[C@H]3O[C@@H](C)[C@@H](O)[C@@H](OC)[C@@H]3O)cc2)C(C)C)C(=O)OCc2c1cc1n(c2=O)Cc2cc3ccccc3nc2-1 [Example 19] (X4-PLGLEV-X2),400 nM,200 nM,1500 nM
CC[C@@]1(OC(=O)[C@@H](NC(=O)CNC(=O)[C@H](CC(C)C)NC(=O)CNC(=O)[C@H](CC(C)C)NC(=O)[C@@H]2CCCN2C(=S)Nc2ccc(O[C@H]3O[C@@H](C)[C@@H](O)[C@@H](OC)[C@@H]3O)cc2)C(C)C)C(=O)OCc2c1cc1n(c2=O)Cc2cc3ccccc3nc2-1 [Example 20] (X4-PLGLGV-X2),250 nM,120 nM,800 nM
CC[C@@]1(OC(=O)[C@@H](NC(=O)[C@@H]2CCCN2C(=O)[C@H](CC(C)C)NC(=O)CNC(=O)[C@H](CC(C)C)NC(=O)[C@@H]2CCCN2C(=S)Nc2ccc(O[C@H]3O[C@@H](C)[C@@H](O)[C@@H](OC)[C@@H]3O)cc2)C(C)C)C(=O)OCc2c1cc1n(c2=O)Cc2cc3ccccc3nc2-1 [Example 21] (X4-PLGLPV-X2),250 nM,100 nM,800 nM
CC[C@@]1(OC(=O)[C@@H](NC(=O)[C@H](C)NC(=O)[C@H](CC(C)C)NC(=O)CNC(=O)[C@H](CC(C)C)NC(=O)[C@@H]2CCCN2C(=S)Nc2ccc(O[C@H]3O[C@@H](C)[C@@H](O)[C@@H](OC)[C@@H]3O)cc2)C(C)C)C(=O)OCc2c1cc1n(c2=O)Cc2cc3ccccc3nc2-1 [Example 22] (X4-PLGLAV-X2),70 nM,40 nM,250 nM
CC[C@@]1(OC(=O)[C@H](NC(=O)[C@@H](CC(N)=O)NC(=O)[C@@H](CC(C)C)NC(=O)CNC(=O)[C@H](CC(C)C)NC(=O)[C@H]2CCCN2C(=S)Nc2ccc(OC3O[C@H](C)[C@H](O)[C@H](OCC(=O)O)[C@@H]3O)cc2)C(C)C)C(=O)OCc2c1cc1n(c2=O)Cc2cc3ccccc3nc2-1 (stereo partly drawn) [Example 23] (X8-[dP]LG[dL][dN][dV]-X2),120 nM,200 nM,800 nM
CC[C@@]1(OC(=O)[C@H](NC(=O)[C@@H](CC(N)=O)NC(=O)[C@@H](CC(C)C)NC(=O)CNC(=O)[C@H](CC(C)C)NC(=O)[C@H]2CCCN2C(=S)Nc2ccc(OC3O[C@H](CO)[C@H](O)[C@H](O)[C@@H]3O)cc2)C(C)C)C(=O)OCc2c1cc1n(c2=O)Cc2cc3ccccc3nc2-1 (stereo partly drawn) [Example 24] (X7-[dP]LG[dL][dN][dV]-X2),100 nM,200 nM,500 nM
"CC[C@]1(OC(=O)[C@H](NC(=O)[C@@H](CC(N)=O)NC(=O)[C@@H](CC(C)C)NC(=O)CNC(=O)[C@H](CC(C)C)NC(=O)[C@H]2CCCN2C(=S)Nc2ccc(O[C@@H]3O[C@H](C)[C@H](O)[C@H](OCCO)[C@@H]3O)cc2)C(C)C)C(=O)OCc2c1cc1n(c2=O)Cc2cc3ccccc3nc2-1 [Example 25] (X9-[dP]LG[dL][dN][dV]-{Camptothecin(20R,20-O)})",150 nM,180 nM,800 nM
"CC[C@]1(OC(=O)C(NC(=O)[C@@H](CC(N)=O)NC(=O)[C@@H](CC(C)C)NC(=O)CNC(=O)[C@H](CC(C)C)NC(=O)C2CCCN2C(=S)Nc2ccc(O[C@@H]3O[C@H](C)[C@H](O)[C@H](OCC(N)=O)[C@@H]3O)cc2)C(C)C)C(=O)OCc2c1cc1n(c2=O)Cc2cc3ccccc3nc2-1 (stereo partly drawn) [Example 26] (X5-[ξP]LG[dL][dN][ξV]-{Camptothecin(20R,20-O)})",90 nM,150 nM,450 nM
"CC[C@]1(OC(=O)[C@H](NC(=O)[C@@H](CC(N)=O)NC(=O)[C@@H](CC(C)C)NC(=O)CNC(=O)[C@H](CC(C)C)NC(=O)C2CCCN2C(=O)CNC(=S)Nc2ccc(O[C@@H]3O[C@H](C)[C@H](O)[C@H](OC)[C@@H]3O)cc2)C(C)C)C(=O)OCc2c1cc1n(c2=O)Cc2cc3ccccc3nc2-1 (stereo partly drawn) [Example 27] (X6-G[ξP]LG[dL][dN][dV]-{Camptothecin(20R,20-O)})",15 nM,25 nM,50 nM
